Measured values published in patent US20210380988A1, “Reducing Prominin2-Mediated Resistance to Ferroptotic Cell Death” (University of Massachusetts, priority 2020, published 2021).

Assays:
[1] = system: SW620; assay: Viability with RSL3 and KRIBB11 co-treatment; type: cell-based; conditions: SW620, 10 uM KRIBB11, 24 hours
Description: (§1) Cell-based assays: Assays to assess survival in response to matrix detachment were performed as described (Brown C W, 2017). To assay survival in response to GPX4 inhibition, adherent cells in 96 well plates (1.0×10^4 per well) were treated with either DMSO, RSL3, ML210, FIN56 or erastin for 24 hrs with and without ferrostatin-1 or DFO. Subsequently, cells were fixed in 4% paraformaldehyde (Boston BioProducts), stained with crystal violet (Sigma) and read on a microplate reader (Beckman Colter) at absorbance 595. Absorbances were normalized to DMSO.

[2] = system: HCC1806; assay: Viability with RSL3 and KRIBB11 co-treatment; type: cell-based; conditions: HCC1806, 10 uM KRIBB11, 24 hours
Description: as §1

[3] = system: SW480; assay: Viability with RSL3 and KRIBB11 co-treatment; type: cell-based; conditions: SW480, 10 uM KRIBB11, 24 hours
Description: as §1

[4] = system: prominin2; assay: PROM2 mRNA (qPCR) and prominin2 protein (immunoblot) expression in MCF10A cells; type: cell-based; conditions: MCF10A, 10 uM KRIBB11, 25 uM 4HNE or 5 uM RSL3, 60 minutes
Description: Biochemical experiments: Immunoblotting and qPCR were performed as described (Brown C W, 2017). Briefly, for immunoblotting, cell lysates were extracted using radioimmunoprecipitation assay (RIPA) buffer (Boston Bioproducts). Extracts were separated by SDS PAGE using the specified antibodies. Immunoprecipitation was performed on lysates isolated using NP-40 buffer (Boston Bioproducts). Lysates were pre-cleared prior to overnight incubation with the primary antibody and protein A agarose beads (Sigma-Aldrich). Immune complexes were separated by SDS PAGE and immunoblotted as described in figure legends. RNA was isolated from cells (BioBasic) and cDNA was generated using the All in One cDNA Synthesis SuperMix (BioScript Solutions). qPCR was performed using a SYBR green master mix (BioScript Solutions). Sequences for primers used were as follows: […]

[5] = system: HSF1; assay: HSF1 mRNA, protein, S326 phosphorylation and nuclear localization in MCF10A cells; type: cell-based; conditions: 10 uM KRIBB11 with 4HNE or RSL3, 60 minutes
[6] = system: Hs578t cells; assay: Survival of adherent cells in response to GPX4 inhibition (crystal violet); type: cell-based; conditions: Hs578t
Description: as §1

[7] = system: MCF10A cells; assay: as above; type: cell-based
Description: as §1

[8] = system: cancer cell lines; conditions: across hundreds of cancer cells lines; cited from earlier work
[9] = system: MDA-MB-231 cells; assay: Survival of adherent cells in response to GPX4 inhibition (crystal violet); type: cell-based; conditions: MDA-MB-231, prominin2 expression construct vs vector control
Description: as §1

CNc1ccc([N+](=O)[O-])c(Nc2ccc3[nH]ncc3c2)n1 [KRIBB11, N(2)-(1H-indazole-5-yl)-N(6)-methyl-3-nitropyridine-2,6-diamine]
ability to resist RSL3-induced ferroptosis when co-treated with RSL3 and KRIBB11 [1]: significantly reduced | ability to resist RSL3-induced ferroptosis when co-treated with RSL3 and KRIBB11 [2]: significantly reduced | ability to resist RSL3-induced ferroptosis when co-treated with RSL3 and KRIBB11 [3]: significantly reduced | upregulation of PROM2 mRNA and prominin2 protein expression in response to either 4HNE or RSL3 [4]: prevented the upregulation | expression, phosphorylation and nuclear localization of HSF1 [5]: neither the expression, phosphorylation nor nuclear localization of HSF1 was affected | ability to resist RSL3-induced ferroptosis when co-treated with RSL3 and KRIBB11 ([6]; 10 uM KRIBB11, 24 hours): significantly reduced | death induced by RSL3, FIN56, erastin, or imidazole ketone erastin on chemical inhibition of HSF1 ([7]; otherwise resistant cells, cell line not named at b53, FIG. 16E: MCF10A): sensitized otherwise resistant cells to death

Cc1onc(C(=O)N2CCN(C(c3ccc(Cl)cc3)c3ccc(Cl)cc3)CC2)c1[N+](=O)[O-] [ML210]
correlation of high prominin2 expression with response to compound [8]: significantly correlated with resistance | sensitivity to compound in prominin2 knock-down cells compared to control cells ([6]; prominin2 siRNA 48 hours, compound 24 hrs): significant increase in sensitivity | cell death in response to compound with exogenous prominin2 expression [9]: sufficient to inhibit cell death | sensitivity to compound in prominin2 knock-down cells compared to control cells ([7]; MCF10A, prominin2 siRNA 48 hours, compound 24 hrs): significant increase in sensitivity
